Values joined by “and” are separate entries in the source; they are usually repeats but may differ in a detail not shown here. Equal entries are not always repeated.
Legend:
[1] = Metabolite profiling in monkey liver microsomes; type: in vitro ADME; parameters: key: +: peak detected; ?: peak observed; ND: not detected; conditions: 50 μM Compound 1, 2 hours
Description: Preliminary identification of putative metabolites was conducted by comparing the retention time of observed metabolites with retention times obtained with chemically synthesized standards using the following HPLC-UV method:
Incubations with liver microsomes, liver cytosol or pig liver esterase were conducted in a final volume of 0.1 mL per incubation time point. Pooled microsomal protein (1.0 mg/mL) suspended in incubation buffer (0.1 M potassium phosphate, pH 7.4) was incubated for 2 hours at 37° C. with 50 μM Compound 1 from a stock solution in DMSO (final DMSO concentration was 0.1%); the microsomal reaction was initiated by the addition of an NADPH regenerating system (1.3 mM NADP^+, 3.3 mM glucose-6-phosphate, 0.4 U/ml glucose-6-phosphate dehydrogenase, and 3.3 mM MgCl2, final concentrations). Incubations with no NADPH or no protein served as controls. Reactions were terminated by the addition of 0.1 mL of stop solution (acetonitrile). The samples were vortex-mixed for 30 sec and then centrifuged at 10,000×g for 10 min. The supernatant was dried using a Labconco CentriVap concentrator and the dry residue reconstituted in water, transferred to an HPLC glass vial and analyzed by HPLC-UV method 2 (described above).
Results: Preliminary identification was accomplished by comparing LC elution of metabolites with that of available synthetic standards of putative metabolites (FIG. 2). Metabolites U1, U2 and U3 were characterized based on the retention times.

[2] = test system: monkey primary hepatocytes; experiment: Metabolic disposition of [^14C]-Compound 1 and [^14C]-2′-C-methyl guanosine in monkey primary hepatocytes (incubation medium, cellular extracts, nucleotide levels); type: in vitro ADME, Cynomolgus monkey; conditions: for Major metabolites observed in cellular extracts (% of total radioactivity): 10 μM [^14C]-2′-C-methyl guanosine
Description: Primary hepatocytes: Freshly isolated cells from animal and human liver were obtained in suspension on ice. Cells were pelleted by centrifugation at 70-75×g (rat) or 95-90×g (monkey and human) and resuspended at 0.8 million cells per mL of platting medium (William's E supplemented with 5% FBS, 0.5% penicillin-streptomycin, 1% L-glutamine, 4 μg/mL insulin and 1 μM dexamethasone). Multi-well collagen I-coated plates (rat tail collagen type I; 12- or 6-well) were then seeded by addition of 1 mL (12-well; 0.8 million cells/well) or 2 mL (6-well; 1.6 million cells/well) of cell suspension. The plates were gently shaken to evenly distribute the cells and placed in an incubator at 37° C. for approximately 4 to 6 hours to allow cells to attach. Once cells were attached, the platting medium was removed and replaced with hepatocyte culture medium (William's E supplemented with penicillin-streptomycin, 1% L-glutamine, 1% insulin-transferrin-selenium and 0.1 μM dexamethasone). Cells were left overnight in an incubator at 37° C. to acclimatize to culture and the medium.
Hepatocyte incubations with radiolabeled Compound 1 and 2′-C-methyl guanosine, both labeled in the C-8 position of the guanine moiety, were conducted at a final volume of 2.0 mL hepatocyte culture medium/well ([…]). Culture medium from overnight incubation of cells was removed and replaced with fresh medium, pre-warmed to 37° C., containing 1 or 10 μM [^14C]-Compound 1 ([…]) or [^14C]-2′-C-methyl guanosine (127 DPM/μmol) from a stock solution in DMSO (final DMSO concentration was 0.1%) or 50% ethanol (final ethanol concentration was 0.2%). After 1, 4, 8 and 24 hours, 0.5-1.0 mL of incubation medium was removed and stored at −20° C. until analysis (described below). The remaining medium was discarded and cell monolayers were carefully washed two times with ice-cold PBS. Following the last wash, all PBS was carefully removed and 1.0 mL of extraction solution (ice-cold 70% methanol) added. Cells were scrapped off and suspended in the extraction solution, transferred to 2 mL polypropylene microfuge tubes and intracellular contents extracted overnight at −20° C.
Preliminary identification of putative metabolites was conducted by comparing the retention time of observed metabolites in incubation medium and cellular extracts with retention times obtained with chemically synthesized standards using the chromatography conditions described below. Further identification of 2′-C-methyl guanosine nucleotides (mono-, di- and triphosphate) was carried out by incubating cellular extract samples with alkaline phosphatase (10 units for 60 min at 37° C.) and comparing the HPLC retention times of the resulting nucleosides with that of authentic 2′-C-methyl guanosine.
Cellular extracts were prepared by centrifugation at 16,000 RCF using an Eppendorf microcentrifuge (Eppendorf, Model 5415D) for 10 min to remove cellular debris. An aliquot of 5-10 μL of the supernatant was added to 5 mL of EcoLite™ (MP, Irvine, Calif.) liquid scintillation cocktail and radioactivity measured by liquid scintillation counting (LSC) using a Beckman Coulter LS6500 multipurpose liquid scintillation counter (Beckman Instruments, Fullerton, Calif.). The remaining sample was then dried using a Labconco refrigerated centrivap concentrator (Labconco, Kansas City, Mo.). Dry extracts were reconstituted in 120 μL of HPLC-grade water and centrifuged at 16,000 RCF using an Eppendorf microcentrifuge for 10 min. Prior to HPLC analysis (described below), radioactivity of the concentrated extracts was measured by LSC using 5 μL aliquots. Extraction recovery was then determined by comparing total radioactivity in extracts before and after drying. The remaining extract was then analyzed by HPLC with online radioactivity detection using a Flow Scintillation Analyzer Radiomatic™ 515TR. Radioactivity in the separated components was quantified by integrating the peaks using Flo-One™ Software (Perkin Elmer Life Sciences). […]

[3] = Incubation with rat liver cytosol; type: in vitro ADME; conditions: rat cytosol 1 mg/mL, 2 hours, 10 μM
Description: Pooled liver cytosol (1.0 mg protein/mL) suspended in incubation buffer (0.1 M potassium phosphate, pH 7.4) was incubated for 2 hours at 37° C. with 10 μM Compound 1 from a stock solution in DMSO (final DMSO concentration was 0.1%); reaction was initiated with the addition of test article. Incubations with no protein served as control. Reactions were terminated by the addition of 0.1 mL of stop solution (acetonitrile). The samples were vortex-mixed for 30 sec and then centrifuged at 10,000×g for 10 min. The supernatant was dried using a Labconco CentriVap concentrator and the dry residue reconstituted in water, transferred to an HPLC glass vial and analyzed by HPLC-UV method 2 (described above).
Metabolic stability of the proposed metabolites was conducted by incubating the chemically synthesized standards Compound 2, Compound 4 and Compound 3 as described above for Compound 1. When possible, formation of Compound 5 was verified by incubating samples with alkaline phosphatase (10 U) for 60 min at 37° C.

[4] = monkey hepatocytes (Cy230, Cy234), 10 μM [^14C]-Compound 1, 1 h
[5] = monkey hepatocytes (Cy230, Cy234), 10 μM [^14C]-Compound 1, 8 h
[6] = monkey hepatocytes (Cy230, Cy234), 10 μM [^14C]-Compound 1, 24 h
[7] = monkey hepatocytes (Cy234), 10 μM [^14C]-Compound 1, 4 h
[8] = monkey hepatocytes (lot Cy234), 10 μM [^14C]-Compound 1, 4 h
[9] = monkey hepatocytes (lots Cy230, Cy234), 10 μM [^14C]-Compound 1, 0 h
[10] = monkey hepatocytes (lots Cy230, Cy234), 10 μM [^14C]-Compound 1, 8 h
[11] = monkey hepatocytes (lots Cy230, Cy234), 10 μM [^14C]-Compound 1, 24 h
[12] = monkey hepatocytes (lots Cy230, Cy234), 10 μM [^14C]-Compound 1, 1 h

SMILES: C[C@@]1(O)[C@H](O)[C@@H](CO)O[C@H]1n1cnc2c(=O)[nH]c(N)nc21 [2′-C-methyl guanosine, 9-(2-C-methyl-β-D-ribofuranosyl)guanine, reference compound]
- In vitro metabolite profile in microsomes following incubation with Compound 1 (peak detection) [1]: +
- metabolites observed in cellular extracts (% of total radioactivity) [2, 4]: 1.68% and 3.04%
- metabolites observed in cellular extracts (% of total radioactivity) [2, 5]: 0.95% and 2.06%
- metabolites observed in cellular extracts (% of total radioactivity) [2, 6]: 2.31% and 1.25%
- metabolites observed in cellular extracts (% of total radioactivity) [2, 7]: 1.35%
- metabolites observed in medium (% of total radioactivity) [2, 8]: 6.8%
- metabolites observed in medium (% of total radioactivity) [2, 9]: BLD^c and BLD
- metabolites observed in medium (% of total radioactivity) [2, 10]: 10.4% and 14.8%
- metabolites observed in medium (% of total radioactivity) [2, 11]: 48.8% and 35.6%
- Major metabolites observed in cellular extracts (% of total radioactivity) ([2]; monkey hepatocytes Cy230, 1 h): 96.4 % of total radioactivity
- Major metabolites observed in cellular extracts (% of total radioactivity) ([2]; monkey hepatocytes Cy230, 8 h): 77.3 % of total radioactivity
- Major metabolites observed in cellular extracts (% of total radioactivity) ([2]; monkey hepatocytes Cy230, 24 h): 65.0 % of total radioactivity
- Major metabolites observed in cellular extracts (% of total radioactivity) ([2]; monkey hepatocytes Cy234, 1 h): 86.9 % of total radioactivity
- Major metabolites observed in cellular extracts (% of total radioactivity) ([2]; monkey hepatocytes Cy234, 4 h): 57.9 % of total radioactivity
- Major metabolites observed in cellular extracts (% of total radioactivity) ([2]; monkey hepatocytes Cy234, 8 h): 45.8 % of total radioactivity
- Major metabolites observed in cellular extracts (% of total radioactivity) ([2]; monkey hepatocytes Cy234, 24 h): 29.0 % of total radioactivity

SMILES: C[C@@]1(O)[C@H](O)[C@@H](COP(=O)(O)NCc2ccccc2)O[C@H]1n1cnc2c(=O)[nH]c(N)nc21 [Compound 2, [(2R)-2-methyl-β-D-ribofuranosyl]guanine-N-benzylaminyl-5′-monophosphate]
- Residual compound following incubation with liver cytosol [3]: 0%
- metabolites observed in cellular extracts (% of total radioactivity) [2, 4]: 3.20% and 7.96%
- metabolites observed in cellular extracts (% of total radioactivity) [2, 5]: BLD^c and BLD
- metabolites observed in cellular extracts (% of total radioactivity) [2, 6]: BLD
- metabolites observed in cellular extracts (% of total radioactivity) [2, 7]: 1.25%
- metabolites observed in medium (% of total radioactivity) [2, 8]: 1.1%
- metabolites observed in medium (% of total radioactivity) [2, 9]: 1.0% and 6.2%
- metabolites observed in medium (% of total radioactivity) [2, 12]: 1.9% and 0.6%
- metabolites observed in medium (% of total radioactivity) [2, 10]: 8.5% and 1.8%
- metabolites observed in medium (% of total radioactivity) [2, 11]: 7.0% and 8.2%

SMILES: CC(C)(CO)C(=O)SCCOP(N)(=O)OC[C@H]1O[C@@H](n2cnc3c(=O)[nH]c(N)nc32)[C@](C)(O)[C@@H]1O (mixture of isomers) [Compound 3, {9-[(2R)2-C-methyl-β-D-ribo-furanosyl]-guanin}-5′-yl-O-(hydroxy-tert-butyl-S-acyl-2-thioethyl) phosphoramidate]
- Residual compound following incubation with liver cytosol [3]: 96%
- metabolites observed in medium (% of total radioactivity) [2, 8]: BLD
- metabolites observed in medium (% of total radioactivity) [2, 9]: BLD
- metabolites observed in medium (% of total radioactivity) [2, 12]: BLD
- metabolites observed in medium (% of total radioactivity) [2, 11]: 3.1% and 0.9%

— patent publication US20100003217A1, “Compounds and Pharmaceutical Compositions for the Treatment of Viral Infections” (priority 2008, published 2010)
